Data as given in patent US9777003B2, “Tricyclic heterocycles as bet protein inhibitors” (Incyte Corporation, priority 2013, dated 2017).
Structures can show the parent of a compound that is named as a salt.

Key:
BRD4-BD1 = BRD4-BD1 (Homo sapiens (Human), UniProt O60885); assay: BRD4 AlphaScreen assay, BRD4-BD1; type: binding; conditions: biotin-labeled tetra-acetylated histone H4 peptide, 75 min, room temperature, read-out: BRD4 BD-1 enzyme IC50
In short: (§1)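 Bromodomain–H4Ac4 peptide (50 nM) proximity assay; BD1 at 3.8 nM, BD2 at 20 nM. Reaction 75 min RT, bead detection 75 min in the dark, IC50 by dose-response fit.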

BRD4-BD2 = BRD4-BD2 (Homo sapiens (Human), UniProt O60885); assay: BRD4 AlphaScreen assay, BRD4-BD2; type: binding; conditions: biotin-labeled tetra-acetylated histone H4 peptide, 75 min, room temperature, read-out: BRD4 BD-2 enzyme IC50
In short: as §1

For `Cc1nnc2ccc3c(cc(-c4ccn(C)n4)n3Cc3cc(Cl)cc(CN4CCC4)c3)n12` [Example 185, 6-[3-(Azetidin-1-ylmethyl)-5-chlorobenzyl]-1-methyl-7-(1-methyl-1H-pyrazol-3-yl)-6H-pyrrolo[2,3-e][1,2,4]triazolo[4,3-a]pyridine tris(trifluoroacetate) Salt], the IC50 (BRD4-BD1) was at most 100 nM and the IC50 (BRD4-BD2) was at most 100 nM.
`Cc1cc2c(cc(Nc3ccccc3)c3nnc(C)n32)n1Cc1ccccc1` [Example 260, 6-Benzyl-1,7-dimethyl-N-phenyl-6H-pyrrolo[2,3-e][1,2,4]triazolo[4,3-a]pyridin-4-amine] showed an IC50 (BRD4-BD1) of at most 100 nM and an IC50 (BRD4-BD2) of at most 100 nM.
`Cc1nnc2ccc3c(cc(-c4ccn(C)n4)n3Cc3ccccc3)n12` [Example 76, 6-benzyl-1-methyl-7-(1-methyl-1H-pyrazol-3-yl)-6H-pyrrolo[2,3-e][1,2,4]triazolo[4,3-a]pyridine] gave an IC50 (BRD4-BD1) of at most 100 nM and an IC50 (BRD4-BD2) of at most 100 nM.
Compound `Cc1cc2c(cc(N[C@H]3CCN(C(=O)OC(C)(C)C)C3)c3nnc(C)n32)n1Cc1ccccc1` [Example 150, tert-butyl (3S)-3-[(6-benzyl-1,7-dimethyl-6H-pyrrolo[2,3-e][1,2,4]triazolo[4,3-a]pyridin-4-yl)amino]pyrrolidine-1-carboxylate] has an IC50 (BRD4-BD1) of at most 100 nM and an IC50 (BRD4-BD2) of at most 100 nM.
Compound `Cc1nnc2ccc3c(cc(-c4ccn(CCC(=O)N5CCC5)n4)n3Cc3cccc(Cl)c3)n12` [Example 104, 7-[1-(3-azetidin-1-yl-3-oxopropyl)-1H-pyrazol-3-yl]-6-(3-chlorobenzyl)-1-methyl-6H-pyrrolo[2,3-e][1,2,4]triazolo[4,3-a]pyridine] has an IC50 (BRD4-BD1) of at most 100 nM and an IC50 (BRD4-BD2) of at most 100 nM.
With `Cc1nnc2ccc3c(cc(-c4ccn(CCC(=O)N(C)C)n4)n3Cc3cccc(Cl)c3)n12` [Example 103, 3-{3-[6-(3-chlorobenzyl)-1-methyl-6H-pyrrolo[2,3-e][1,2,4]triazolo[4,3-a]pyridin-7-yl]-1H-pyrazol-1-yl}-N,N-dimethylpropanamide] the IC50 (BRD4-BD1) was at most 100 nM and the IC50 (BRD4-BD2) was at most 100 nM.
Work on `Cc1nnc2ccc3c(cc(-c4ccn(C(C)CC#N)n4)n3Cc3ccccc3)n12` (racemic) [Example 87, 3-[3-(6-benzyl-1-methyl-6H-pyrrolo[2,3-e][1,2,4]triazolo[4,3-a]pyridin-7-yl)-1H-pyrazol-1-yl]butanenitrile Trifluoroacetate Salt] yielded an IC50 (BRD4-BD1) of at most 100 nM and an IC50 (BRD4-BD2) of at most 100 nM.
Work on `Cc1cc2c(ccc3nnc(C)n32)n1CC1CCCC1` [Example 13, 6-(cyclopentylmethyl)-1,7-dimethyl-6H-pyrrolo[2,3-e][1,2,4]triazolo[4,3-a]pyridine] yielded an IC50 (BRD4-BD1) of 100 to 1000 nM and an IC50 (BRD4-BD2) of at most 100 nM.
With `Cc1nnc2ccc3c(cc(-c4ccn(CCC(=O)NC5CCOCC5)n4)n3Cc3cccc(Cl)c3)n12` [Example 170, 3-{3-[6-(3-Chlorobenzyl)-1-methyl-6H-pyrrolo[2,3-e][1,2,4]triazolo[4,3-a]pyridin-7-yl]-1H-pyrazol-1-yl}-N-(tetrahydro-2H-pyran-4-yl)propanamide Trifluoroacetate Salt] the IC50 (BRD4-BD1) was at most 100 nM and the IC50 (BRD4-BD2) was at most 100 nM.
For `CCNC(=O)CCn1ccc(-c2cc3c(ccc4nnc(C)n43)n2Cc2cccc(Cl)c2)n1` [Example 175, 3-{3-[6-(3-Chlorobenzyl)-1-methyl-6H-pyrrolo[2,3-e][1,2,4]triazolo[4,3-a]pyridin-7-yl]-1H-pyrazol-1-yl}-N-ethylpropanamide Trifluoroacetate Salt], the IC50 (BRD4-BD1) was at most 100 nM and the IC50 (BRD4-BD2) was at most 100 nM.
`Cc1cc2c(cc(NC(N)=O)c3nnc(C)n32)n1Cc1cccc(Cl)c1` [Example 231, 1-(6-(3-Chlorobenzyl)-1,7-dimethyl-6H-pyrrolo[2,3-e][1,2,4]triazolo[4,3-a]pyridin-4-yl)urea] was tested, and the IC50 (BRD4-BD1) was at most 100 nM and the IC50 (BRD4-BD2) was at most 100 nM.
Compound `CNC(=O)Nc1cc2c(cc(C)n2Cc2ccccc2)n2c(C)nnc12` [Example 229, 1-(6-Benzyl-1,7-dimethyl-6H-pyrrolo[2,3-e][1,2,4]triazolo[4,3-a]pyridin-4-yl)-3-methylurea] has an IC50 (BRD4-BD1) of at most 100 nM and an IC50 (BRD4-BD2) of at most 100 nM.
Compound `Cc1nnc2ccc3c(cc(-c4ccn(C5(CC#N)CNC5)n4)n3Cc3ccccc3)n12` [Example 90, {3-[3-(6-benzyl-1-methyl-6H-pyrrolo[2,3-e][1,2,4]triazolo[4,3-a]pyridin-7-yl)-1H-pyrazol-1-yl]azetidin-3-yl}acetonitrile] has an IC50 (BRD4-BD1) of at most 100 nM and an IC50 (BRD4-BD2) of at most 100 nM.
With `Cc1cc2c(ccc3nnc(C)n32)n1Cc1ccccn1` [Example 7, 1,7-dimethyl-6-(pyridin-2-ylmethyl)-6H-pyrrolo[2,3-e][1,2,4]triazolo[4,3-a]pyridine] the IC50 (BRD4-BD1) was 100 to 1000 nM and the IC50 (BRD4-BD2) was 100 to 1000 nM.
For `Cc1cc2c(ccc3nnc(C)n32)n1Cc1cccc(CN2CCNCC2)c1` [Example 48, 1,7-dimethyl-6-[3-(piperazin-1-ylmethyl)benzyl]-6H-pyrrolo[2,3-e][1,2,4]triazolo[4,3-a]pyridine], the IC50 (BRD4-BD1) was 100 to 1000 nM and the IC50 (BRD4-BD2) was at most 100 nM.
`Cc1cc2c(cc(NCC3CCN(C(=O)OC(C)(C)C)CC3)c3nnc(C)n32)n1Cc1ccccc1` [Example 242, tert-Butyl 4-((6-benzyl-1,7-dimethyl-6H-pyrrolo[2,3-e][1,2,4]triazolo[4,3-a]pyridin-4-ylamino)methyl)piperidine-1-carboxylate] gave an IC50 (BRD4-BD1) of 100 to 1000 nM and an IC50 (BRD4-BD2) of at most 100 nM.
`Cc1cc2c(cc(NS(C)(=O)=O)c3nnc(C)n32)n1Cc1ccccc1` [Example 271, N-(6-Benzyl-1,7-dimethyl-6H-pyrrolo[2,3-e][1,2,4]triazolo[4,3-a]pyridin-4-yl)methanesulfonamide] was tested, and the IC50 (BRD4-BD1) was 100 to 1000 nM and the IC50 (BRD4-BD2) was at most 100 nM.
In the case of `CC(=O)N1CC(n2ccc(-c3cc4c(ccc5nnc(C)n54)n3Cc3cccc(Cl)c3)n2)C1` [Example 108, 7-[1-(1-acetylazetidin-3-yl)-1H-pyrazol-3-yl]-6-(3-chlorobenzyl)-1-methyl-6H-pyrrolo[2,3-e][1,2,4]triazolo[4,3-a]pyridine], the IC50 (BRD4-BD1) is reported as at most 100 nM and the IC50 (BRD4-BD2) is reported as at most 100 nM.
`Cc1cc2c(cc(NCC3CCC3)c3nnc(C)n32)n1Cc1ccccc1` [Example 241, 6-Benzyl-N-(cyclobutylmethyl)-1,7-dimethyl-6H-pyrrolo[2,3-e][1,2,4]triazolo[4,3-a]pyridin-4-amine] showed an IC50 (BRD4-BD1) of 100 to 1000 nM and an IC50 (BRD4-BD2) of at most 100 nM.
`Cc1nnc2ccc3c(cc(C(=O)N4CC(C#N)C4)n3Cc3ccccc3)n12` [Example 60, 1-[(6-benzyl-1-methyl-6H-pyrrolo[2,3-e][1,2,4]triazolo[4,3-a]pyridin-7-yl)carbonyl]azetidine-3-carbonitrile] showed an IC50 (BRD4-BD1) of 100 to 1000 nM and an IC50 (BRD4-BD2) of at most 100 nM.
Work on `Cc1cc2c(ccc3nnc(C)n32)n1Cc1ccc(CN2CCCC2)cc1` [Example 51, 1,7-dimethyl-6-[4-(pyrrolidin-1-ylmethyl)benzyl]-6H-pyrrolo[2,3-e][1,2,4]triazolo[4,3-a]pyridine] yielded an IC50 (BRD4-BD1) of 100 to 1000 nM and an IC50 (BRD4-BD2) of 100 to 1000 nM.
`Cc1cc2c(ccc3nnc(C)n32)n1Cc1cccc(F)c1` [Example 15, 6-(3-fluorobenzyl)-1,7-dimethyl-6H-pyrrolo[2,3-e][1,2,4]triazolo[4,3-a]pyridine] was tested, and the IC50 (BRD4-BD1) was at most 100 nM and the IC50 (BRD4-BD2) was at most 100 nM.
With `Cc1nnc2ccc3c(cc(-c4cnn(CC#N)c4)n3Cc3ccccc3)n12` [Example 64, [4-(6-benzyl-1-methyl-6H-pyrrolo[2,3-e][1,2,4]triazolo[4,3-a]pyridin-7-yl)-1H-pyrazol-1-yl]acetonitrile] the IC50 (BRD4-BD1) was at most 100 nM and the IC50 (BRD4-BD2) was at most 100 nM.
Work on `Cc1nnc2ccc3c(cc(-c4ccn(C5CN(C(=O)CN(C)C)C5)n4)n3Cc3cccc(Cl)c3)n12` [Example 162, 2-(3-{3-[6-(3-Chlorobenzyl)-1-methyl-6H-pyrrolo[2,3-e][1,2,4]triazolo[4,3-a]pyridin-7-yl]-1H-pyrazol-1-yl}azetidin-1-yl)-N,N-dimethyl-2-oxoethanamine bis(trifluoroacetate) Salt] yielded an IC50 (BRD4-BD1) of at most 100 nM and an IC50 (BRD4-BD2) of at most 100 nM.
With `Cc1nnc2ccc3c(cc(-c4cncn4C)n3Cc3ccccc3)n12` [Example 71, 6-benzyl-1-methyl-7-(1-methyl-1H-imidazol-5-yl)-6H-pyrrolo[2,3-e][1,2,4]triazolo[4,3-a]pyridine] the IC50 (BRD4-BD1) was 100 to 1000 nM and the IC50 (BRD4-BD2) was 1000 to 10000 nM.
`CCCNc1cc2c(cc(C)n2Cc2ccccc2)n2c(C)nnc12` [Example 262, 6-Benzyl-N-propyl-1,7-dimethyl-6H-pyrrolo[2,3-e][1,2,4]triazolo[4,3-a]pyridin-4-amine] was tested, and the IC50 (BRD4-BD1) was at most 100 nM and the IC50 (BRD4-BD2) was at most 100 nM.
`Cc1cc2c(cc(NC3CCN(C)CC3)c3nnc(C)n32)n1Cc1ccccc1` [Example 207, 6-Benzyl-1,7-dimethyl-N-(1-methylpiperidin-4-yl)-6H-pyrrolo[2,3-e][1,2,4]triazolo[4,3-a]pyridin-4-amine] gave an IC50 (BRD4-BD1) of at most 100 nM and an IC50 (BRD4-BD2) of at most 100 nM.
`Cc1nnc2ccc3c(cc(C(=O)NCC4CNC4)n3Cc3ccccc3)n12` [Example 124, N-(Azetidin-3-ylmethyl)-6-benzyl-1-methyl-6H-pyrrolo[2,3-e][1,2,4]triazolo[4,3-a]pyridine-7-carboxamide bis(trifluoroacetate) Salt] was tested, and the IC50 (BRD4-BD1) was 1000 to 10000 nM and the IC50 (BRD4-BD2) was 1000 to 10000 nM.
With `Cc1nnc2ccc3c(cc(-c4ccn(C5CN(S(=O)(=O)N(C)C)C5)n4)n3Cc3cccc(Cl)c3)n12` [Example 161, 3-{3-[6-(3-Chlorobenzyl)-1-methyl-6H-pyrrolo[2,3-e][1,2,4]triazolo[4,3-a]pyridin-7-yl]-1H-pyrazol-1-yl}-N,N-dimethylazetidine-1-sulfonamide bis(trifluoroacetate) Salt] the IC50 (BRD4-BD1) was at most 100 nM and the IC50 (BRD4-BD2) was at most 100 nM.
In the case of `Cc1nnc2ccc3c(cc(-c4ccn(CCC(=O)NC(C)(C)C)n4)n3Cc3cccc(Cl)c3)n12` [Example 176, N-(tert-Butyl)-3-{3-[6-(3-chlorobenzyl)-1-methyl-6H-pyrrolo[2,3-e][1,2,4]triazolo[4,3-a]pyridin-7-yl]-1H-pyrazol-1-yl}propanamide Trifluoroacetate Salt], the IC50 (BRD4-BD1) is reported as at most 100 nM and the IC50 (BRD4-BD2) is reported as at most 100 nM.
